Test results: patent publication US6951731B2, “Method for evaluating inhibition of aspartic proteases” (priority 2001, dated 2005)
Where two headings read alike, the source gives them in different places. Where a SMILES comes first, the peptide text is derived from it. [ ]: non-standard residue; d: D form. The star is where a group is joined. Sta = CC(C)C[C@H](N)[C@@H](O)CC(=O)O; Isovaleryl = CC(C)CC(=O)*

Key:
pepsin [1] = target: T1, pepsin (Sus scrofa, UniProt P00791); settings: cited from earlier work; for D2Okcat (solvent isotope effect): pepsin, synthetic peptide substrate
T1 construct: formed from pepsinogen A by limited proteolysis

pepsin [2] = target: T1, pepsin; test: Kinetics and solvent isotope effects of pepsin acting on synthetic substrates; type: biochemical, porcine; settings: for kcat (fitted pH-independent kinetic constant): re-analysis of Hunkapillar & Richards data
Procedure: FIG. 2: Kinetics of pepsin acting on N-trifluroacetyl-L-phenylalanine as a function of pH (A) and pD (B). The fitted pH-independent kinetic constants are kcat=0.038±0.006 min^−1 in H2O and kcat=[…] in D2O. The dotted line indicates the range of carboxyl pKs consistent with the fitted line in D2O.
The response of low-barrier hydrogen bonds to D2O, as described herein, finally solves this 92 year-old mystery and simultaneously provides a means to evaluate the efficacy of potential aspartic protease inhibitors. During hydrolysis of N-trifluroacetyl-L-phenylalanine, Hunkapillar & Richards^10 observed bell-shaped pH profiles which were shifted to the right, but the upper pK profiles shifted to the left, thereby bringing them closer together. Normally, D2O shifts all pKs to the right about half a unit because of the fractionation factor of H3O^+.^11
The fit to the BELL rate equation of data obtained in H2O converged with pKs of 2.9±0.1 and 4.5±0.1, while those in D2O converged to the default separation of only 0.6 units, the minimum that is statistically possible. The fitted curve in FIG. 2B is the same for identical pKs of 3.84±0.08 or separated pKs of 3.5 and 4.1—or anything in between. Unknown in 1972, low-barrier hydrogen bonds are now understood to cause opposite shifts in the pKs of the conjugate bases participating in the bond. Both protonation and deprotonation of the low-barrier hydrogen bond complex are made more difficult, which shifts apparent pKs outwards in H2O but less so in D2O.^7
By comparing the maximal values of their fitted curves, Hunkapillar & Richards estimated that ^D2Okcat≈3. However, the appropriate comparison note between the absolute maxima, but between the pH-independent maxima,^11 represented by the horizontal bars in FIGS. 2A and 2B. This ratio yields ^D2Okcat=1.8±0.4 for pKs separated by 0.6 units, and lower values if the fractionation factor is greater than 0.3. […]

HIV-1 protease [3] = target: T2, HIV-1 protease (Human immunodeficiency virus type 1 group M subtype B, UniProt P04585); settings: complex between HIV-1 protease and pepstatin; cited from earlier work
pepsin [4] = target: T1, pepsin; settings: cited from earlier work
HIV-1 protease [5] = target: T2, HIV-1 protease; settings: cited from earlier work
[6] = product inhibition, substrate Ac-Ser-Glu-Asp-Tyr*Phe-Leu-Asp-Gly-NH2 (SEQ. ID. NO: 2), read-out: Kii
[7] = product inhibition, substrate Ac-Ser-Glu-Asp-Tyr*Phe-Leu-Asp-Gly-NH2 (SEQ. ID. NO: 2), read-out: Kis
[8] = substrate Ac-Ser-Glu-Asp-Tyr*Phe-Leu-Asp-Gly-NH2 (SEQ. ID. NO: 2), KH/KD
[9] = pH 4.5, substrate Ac-Ser-Glu-Asp-Tyr*Phe-Val-Val-NH2 (SEQ. ID. NO: 6)

T1 sequence (P00791 60-385): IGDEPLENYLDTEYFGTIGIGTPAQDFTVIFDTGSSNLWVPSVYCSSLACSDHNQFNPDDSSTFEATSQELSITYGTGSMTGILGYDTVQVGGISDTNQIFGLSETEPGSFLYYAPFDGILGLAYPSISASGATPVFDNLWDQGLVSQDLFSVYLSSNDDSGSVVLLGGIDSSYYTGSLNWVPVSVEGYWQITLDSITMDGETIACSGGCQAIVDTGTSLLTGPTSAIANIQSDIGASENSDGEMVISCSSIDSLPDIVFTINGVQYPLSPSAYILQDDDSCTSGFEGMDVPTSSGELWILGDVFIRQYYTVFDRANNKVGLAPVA

O=C(O)[C@H](Cc1ccccc1)NC(=O)C(F)(F)F [N-trifluroacetyl-L-phenylalanine]
D2Okcat (pepsin [1]; estimated by Hunkapillar & Richards from maximal values of fitted curves): ≈ 3 | kcat (fitted pH-independent kinetic constant) (pepsin [2]; in D2O): 0.022±2 min^−1 | kcat (fitted pH-independent kinetic constant) (pepsin [2]; in H2O): 0.038±0.006 min^−1 | D2Okcat (pepsin [2]; ratio of pH-independent maxima, pKs separated by 0.6 units): 1.8±0.4

CC(C)CC(=O)N[C@H](C(=O)N[C@H](C(=O)N[C@@H](CC(C)C)[C@@H](O)CC(=O)N[C@@H](C)C(=O)N[C@@H](CC(C)C)[C@@H](O)CC(=O)O)C(C)C)C(C)C [pepstatin] (Isovaleryl-VV[Sta]A[Sta]-OH)
Low-barrier hydrogen bond signal in proton NMR of the inhibited complex (HIV-1 protease [3]): negative results | D2Ok on slow onset of inhibition (pepsin [4]; pre-incubation experiments with free enzyme): 0.69±0.09 | D2Ok on slow onset of inhibition (pepsin [4]; when catalysis is in progress): 1.25±0.09

Ac-Ser-Glu-Asp-Tyr (SEDY; printed: Ser-Glu-Asp-Tyr)
Ki (HIV-1 protease [5]; [6]): 12 mM | Ki (HIV-1 protease [5]; [7]): 3.8 mM | D2OKii (solvent isotope effect on Kii) (HIV-1 protease [5]; [8]): 3.8 ± 1.3 | D2OKis (solvent isotope effect on Kis) (HIV-1 protease [5]; [8]): 4.2 ± 1.6

Leu-Ser-Nph-Nle-Ala-Leu-OMe
D2Okcat (solvent isotope effect) (pepsin [1]): 1.51±0.02

Lys-Lys-Ala-Lys-Phe-Nph-Arg-Leu
D2Okcat (solvent isotope effect) (pepsin [1]): 2.02±0.15

Phe-Leu-Asp-Gly-NH2 (FLDG; printed: Phe-Leu-Asp-Gly-)
Ki (HIV-1 protease [5]; [6]): 4 mM | Ki (HIV-1 protease [5]; [7]): 12 mM | D2OKii (solvent isotope effect on Kii) (HIV-1 protease [5]; [8]): 3.0 ± 0.9 | D2OKis (solvent isotope effect on Kis) (HIV-1 protease [5]; [8]): 1.1 ± 0.4

RASEDY [Ac-Arg-Ala-Ser-Glu-Asp-Tyr]
Ki (HIV-1 protease [5]; pH 3.5, substrate Ac-Ser-Glu-Asp-Tyr*Phe-Val-Val-NH2 (SEQ. ID. NO: 6), pattern uncompetitive, read-out: Kii): 0.23 mM | D2OKii (solvent isotope effect on Kii) (HIV-1 protease [5]; [9]): 1.0 ± 0.8 | D2OKis (solvent isotope effect on Kis) (HIV-1 protease [5]; [9]): 1.2 ± 0.4 | D2OKii (solvent isotope effect on Kii) (HIV-1 protease [5]; pH 6, substrate SEQ. ID. NO: 4): 3.8 ± 1.3 | D2OKis (solvent isotope effect on Kis) (HIV-1 protease [5]; pH 6, substrate SEQ. ID. NO: 4): 4.2 ± 1.6 | Ki (HIV-1 protease [5]; pH 6, substrate printed Ac-Ser-Glu-Asp-Tyr*Phe-Leu-Asp-Gly-NH2 (SEQ. ID. NO: 4), read-out: Kii): 8 mM | Ki (HIV-1 protease [5]; pH 6, substrate printed Ac-Ser-Glu-Asp-Tyr*Phe-Leu-Asp-Gly-NH2 (SEQ. ID. NO: 4), read-out: Kis): 7 mM
